{"source": "patent US6218398A", "about": "“Nocathiacin antibiotics” (Bristol-Myers Squibb Company, priority 1999, dated 2001)", "key": {"[1]": {"tested_on": "Streptococcus pneumoniae A9585", "test": "MIC by conventional serial broth dilution assay", "type": "cell-based"}, "[2]": {"tested_on": "Streptococcus pneumoniae/penicillin intermediate A27881", "test": "MIC by conventional serial broth dilution assay", "type": "cell-based"}, "[3]": {"tested_on": "Streptococcus pneumoniae/penicillin resistant A28272", "test": "MIC by conventional serial broth dilution assay", "type": "cell-based"}, "[4]": {"tested_on": "Streptococcus pyogenes A9604", "test": "MIC by conventional serial broth dilution assay", "type": "cell-based"}, "[5]": {"tested_on": "Enterococcus faecalis A20688", "test": "MIC by conventional serial broth dilution assay", "type": "cell-based"}, "[6]": {"tested_on": "Enterococcus faecalis A27519", "test": "MIC by conventional serial broth dilution assay", "type": "cell-based"}, "[7]": {"tested_on": "Enterococcus faecium A24885", "test": "MIC by conventional serial broth dilution assay", "type": "cell-based"}, "[8]": {"tested_on": "Enterococcus faecium/thiostrepton resistant (10 ug/ml) SC15829", "test": "MIC by conventional serial broth dilution assay", "type": "cell-based"}, "[9]": {"tested_on": "Enterococcus avium A27456", "test": "MIC by conventional serial broth dilution assay", "type": "cell-based"}, "[10]": {"tested_on": "Staphylococcus aureus A9537", "test": "MIC by conventional serial broth dilution assay", "type": "cell-based"}, "[11]": {"tested_on": "Staphylococcus aureus/β-lactamase positive A15090", "test": "MIC by conventional serial broth dilution assay", "type": "cell-based"}, "[12]": {"tested_on": "Staphylococcus aureus/QC/ATCC#29213 A24407", "test": "MIC by conventional serial broth dilution assay", "type": "cell-based", "settings": "ATCC29213"}, "[13]": {"tested_on": "Staphylococcus aureus/hetero methicillin resistant A27218", "test": "MIC by conventional serial broth dilution assay", "type": "cell-based"}, "[14]": {"tested_on": "Staphylococcus aureus/homo methicillin resistant A27223", "test": "MIC by conventional serial broth dilution assay", "type": "cell-based"}, "Micrococcus luteus A9852": {"tested_on": "Micrococcus luteus A9852", "test": "MIC by conventional serial broth dilution assay", "type": "cell-based"}, "Bacillus subtilis A9506A": {"tested_on": "Bacillus subtilis A9506A", "test": "MIC by conventional serial broth dilution assay", "type": "cell-based"}, "[15]": {"tested_on": "Staphylococcus epidermidis A24548", "test": "MIC by conventional serial broth dilution assay", "type": "cell-based"}, "[16]": {"tested_on": "Staphylococcus haemolyticus A27298", "test": "MIC by conventional serial broth dilution assay", "type": "cell-based"}, "Escherichia coli A15119": {"tested_on": "Escherichia coli A15119", "test": "MIC by conventional serial broth dilution assay", "type": "cell-based"}, "Escherichia coli A22292": {"tested_on": "Escherichia coli A22292", "test": "MIC by conventional serial broth dilution assay", "type": "cell-based"}, "[17]": {"tested_on": "Escherichia coli/AcrA::Kan A28901", "test": "MIC by conventional serial broth dilution assay", "type": "cell-based"}, "[18]": {"tested_on": "Salmonella enteritidis A9531", "test": "MIC by conventional serial broth dilution assay", "type": "cell-based", "settings": "Salmonella enterica"}, "[19]": {"tested_on": "Moraxella catarrhalis/β-lactamase positive A22344", "test": "MIC by conventional serial broth dilution assay", "type": "cell-based"}, "[20]": {"tested_on": "Moraxella catarrhalis/β-lactamase positive A25409", "test": "MIC by conventional serial broth dilution assay", "type": "cell-based"}, "[21]": {"tested_on": "Haemophilus influenzae/β-lactamase negative A20191", "test": "MIC by conventional serial broth dilution assay", "type": "cell-based"}, "[22]": {"tested_on": "Haemophilus influenzae/β-lactamase negative A20183", "test": "MIC by conventional serial broth dilution assay", "type": "cell-based"}, "[23]": {"tested_on": "Haemophilus influenzae/β-lactamase positive A21515", "test": "MIC by conventional serial broth dilution assay", "type": "cell-based"}, "Salmonella/WT A27207": {"tested_on": "Salmonella/WT A27207", "test": "MIC by conventional serial broth dilution assay", "type": "cell-based"}, "Salmonella/RE A27208": {"tested_on": "Salmonella/RE A27208", "test": "MIC by conventional serial broth dilution assay", "type": "cell-based"}, "[24]": {"tested_on": "Staphylococcus aureus A15090", "test": "systemic Staph. aureus infection model in mice", "type": "in vivo, female ICR mice infected with Staphylococcus aureus", "settings": "subcutaneous", "description": "Nocathiacin I was evaluated for antibiotic activity in vivo, in a systemic infection model using female ICR mice. The animals were infected IP with 6.5×10^6 CFU of an overnight culture of Staphylococcus aureus A15090 suspended in 7% mucin. Nocathiacin I was dissolved in a test formulation consisting of 10% DMSO, 5% Tween 80 and 85% water. The solution was administered subcutaneously at 100 mg/kg total dose (2×50 mg/kg doses at 1 and 4 hours post-infection). […] The PD50 of nocathiacin I was determined to be <6.25 mg/kg."}, "Gram-positive bacteria": {"tested_on": "Gram-positive bacteria", "test": "in vitro activity against Gram-positive bacteria", "type": "cell-based", "settings": "e.g. multiple drug resistant Enterococcus faecium"}}}
{"smiles": "C=C(NC(=O)c1csc(-c2nc3c(cc2O)-c2nc(cs2)C(=O)NC(C(C)O)C(=O)NC(=C(C)OC)c2nc(cs2)C(=O)NC2c4nc(cs4)C(=O)NC(COC(=O)c4c5c6c(cccc6n4O)COC(=O)C(OC4CC(C)(O)C(N(C)C)C(C)O4)C2OC5)c2nc-3cs2)n1)C(N)=O", "note": "(stereo not shown) [Nocathiacin I]", "values": [{"measurement": "MIC", "setting": "[1]", "value": 0.001, "unit": "µg/mL"}, {"measurement": "MIC", "setting": "[2]", "value": 0.001, "unit": "µg/mL"}, {"measurement": "MIC", "setting": "[3]", "value": 0.001, "unit": "µg/mL"}, {"measurement": "MIC", "setting": "[4]", "value": 0.001, "unit": "µg/mL"}, {"measurement": "MIC", "setting": "[5]; A20688", "value": 0.03, "unit": "µg/mL"}, {"measurement": "MIC", "setting": "[5]; A20688, + 50% calf serum", "value": 0.25, "unit": "µg/mL"}, {"measurement": "MIC", "setting": "[6]", "value": 0.03, "unit": "µg/mL"}, {"measurement": "MIC", "setting": "[7]", "value": 0.015, "unit": "µg/mL"}, {"measurement": "MIC", "setting": "[8]", "value": 0.125, "unit": "µg/mL"}, {"measurement": "MIC", "setting": "[9]", "value": 0.015, "unit": "µg/mL"}, {"measurement": "MIC", "setting": "[10]", "value": 0.001, "unit": "µg/mL"}, {"measurement": "MIC", "setting": "[11]; + 50% calf serum", "value": 0.015, "unit": "µg/mL"}, {"measurement": "MIC", "setting": "[11]; β-lactamase positive", "value": 0.007, "unit": "µg/mL"}, {"measurement": "MIC", "setting": "[12]", "value": 0.007, "unit": "µg/mL"}, {"measurement": "MIC", "setting": "[13]; + 50% calf serum", "value": 0.007, "unit": "µg/mL"}, {"measurement": "MIC", "setting": "[13]; hetero methicillin resistant", "value": 0.003, "unit": "µg/mL"}, {"measurement": "MIC", "setting": "[14]; + 50% calf serum", "value": 0.001, "unit": "µg/mL"}, {"measurement": "MIC", "setting": "[14]; homo methicillin resistant", "value": 0.003, "unit": "µg/mL"}, {"measurement": "MIC", "setting": "Micrococcus luteus A9852", "value": 0.003, "unit": "µg/mL"}, {"measurement": "MIC", "setting": "Bacillus subtilis A9506A", "value": 0.001, "unit": "µg/mL"}, {"measurement": "MIC", "setting": "[15]", "value": 0.003, "unit": "µg/mL"}, {"measurement": "MIC", "setting": "[16]", "value": 0.03, "unit": "µg/mL"}, {"measurement": "MIC", "setting": "Escherichia coli A15119", "value": "> 128", "unit": "µg/mL"}, {"measurement": "MIC", "setting": "Escherichia coli A22292", "value": "> 128", "unit": "µg/mL"}, {"measurement": "MIC", "setting": "[17]", "value": "> 128", "unit": "µg/mL"}, {"measurement": "MIC", "setting": "[18]", "value": "> 128", "unit": "µg/mL"}, {"measurement": "MIC", "setting": "[19]", "value": 0.06, "unit": "µg/mL"}, {"measurement": "MIC", "setting": "[20]", "value": 0.06, "unit": "µg/mL"}, {"measurement": "MIC", "setting": "[21]", "value": "> 128", "unit": "µg/mL"}, {"measurement": "MIC", "setting": "[22]", "value": "> 128", "unit": "µg/mL"}, {"measurement": "MIC", "setting": "[23]", "value": "> 128", "unit": "µg/mL"}, {"measurement": "MIC", "setting": "Salmonella/WT A27207", "value": "> 128", "unit": "µg/mL"}, {"measurement": "MIC", "setting": "Salmonella/RE A27208", "value": "> 128", "unit": "µg/mL"}, {"measurement": "ED50", "setting": "[24]; Staphylococcus aureus, A15090, sc, systemic infection model, female ICR mice, read-out: PD50", "value": "< 6.25", "unit": "mg/kg"}, {"measurement": "signs of toxicity", "setting": "[24]; 100 mg/kg total dose (2×50 mg/kg at 1 and 4 hours post-infection)", "value": "no signs of toxicity"}, {"measurement": "animals survived the duration of the experiment", "setting": "[24]; 100 mg/kg total dose (2×50 mg/kg at 1 and 4 hours post-infection), IP infection 6.5×10^6 CFU", "value": "Nine out of nine"}, {"measurement": "inhibitory activity against Gram-positive bacteria", "setting": "Gram-positive bacteria", "value": "inhibitory activity at the nanomolar level"}]}
